Source: PubChem BioAssay AID330 (DTP/NCI, 2004)
Values joined by “and” are separate entries in the source; they are usually repeats but may differ in a detail not shown here. Identical values can stand only once. Toxic doses and inconclusive results are not listed. Rule for the calls: active = survival T/C of 150% or more; inactive = T/C below 125% in these data.

System: P388 leukemia ip, CD2F1 mice, survival T/C
Experiment: NCI In Vivo Anticancer Drug Screen. Data for tumor model P388 Leukemia (intraperitoneal) in CD2F1 (CDF1) mice
Conditions: endpoint: median survival time, higher = longer survival
Outline: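 Mice carrying the transplanted tumor received test compound or vehicle. Survival was recorded in each group, and the value is the treated-group measurement divided by that of the vehicle-treated control group.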

[1] = dose: 100.0 mg/kg/injection, schedule: Q01DX009 (ip), vehicle: Klucel (hydroxypropylcellulose) (HPC)
[2] = dose: 200.0 mg/kg/injection, schedule: Q01DX009 (ip), vehicle: Klucel (hydroxypropylcellulose) (HPC)
[3] = dose: 25.0 mg/kg/injection, schedule: Q01DX009 (ip), vehicle: saline with Tween-80
[4] = dose: 200.0 mg/kg/injection, schedule: Q01DX009 (ip), vehicle: saline with Tween-80
[5] = dose: 60.0 mg/kg/injection, schedule: Q01DX005 (ip), vehicle: saline with Tween-80
[6] = dose: 120.0 mg/kg/injection, schedule: Q01DX005 (ip), vehicle: saline with Tween-80
[7] = dose: 240.0 mg/kg/injection, schedule: Q01DX005 (ip), vehicle: saline with Tween-80
[8] = dose: 50.0 mg/kg/injection, schedule: Q01DX005 (ip), vehicle: saline with Tween-80
[9] = dose: 100.0 mg/kg/injection, schedule: Q01DX005 (ip), vehicle: saline with Tween-80
[10] = dose: 200.0 mg/kg/injection, schedule: Q01DX005 (ip), vehicle: saline with Tween-80
[11] = dose: 100.0 mg/kg/injection, schedule: Q04DX003 (ip), vehicle: saline
[12] = dose: 200.0 mg/kg/injection, schedule: Q04DX003 (ip), vehicle: saline
[13] = dose: 400.0 mg/kg/injection, schedule: Q04DX003 (ip), vehicle: saline
[14] = dose: 100.0 mg/kg/injection, schedule: Q04DX003 (ip), vehicle: saline with Tween-80
[15] = dose: 200.0 mg/kg/injection, schedule: Q04DX003 (ip), vehicle: saline with Tween-80
[16] = dose: 400.0 mg/kg/injection, schedule: Q04DX003 (ip), vehicle: saline with Tween-80
[17] = dose: 50.0 mg/kg/injection, schedule: Q01DX009 (ip), vehicle: saline with Tween-80
[18] = dose: 100.0 mg/kg/injection, schedule: Q01DX009 (ip), vehicle: saline with Tween-80
[19] = dose: 50.0 mg/kg/injection, schedule: Q01DX005 (ip), vehicle: saline
[20] = dose: 100.0 mg/kg/injection, schedule: Q01DX005 (ip), vehicle: saline
[21] = dose: 200.0 mg/kg/injection, schedule: Q01DX005 (ip), vehicle: saline

Measured: T/C

C=C(C)C(=O)OCCOc1ccc(/C=N/N=c2/sc3ccccc3n2C)cc1OC
inactive: dose: 50.0 mg/kg/injection, schedule: Q01DX009 (ip), vehicle: Klucel (hydroxypropylcellulose) (HPC) 105 % of control | [1] 97 % of control | [2] 108 % of control

Nc1nc(N)c2cc(Sc3ccc(Cl)cc3)ccc2n1
inactive: [3] 118 % of control | [4] 86 % of control

O=C1CCC(Cc2ccc(Br)cc2)C(=O)N1 (stereo not drawn)
inactive: [5] 104 % of control | [6] 98 % of control | [7] 98 % of control

NCCCCC(C(=O)NCC(=O)O)N(C(=O)OCc1ccccc1)C(=O)OCc1ccccc1 (stereo not drawn)
inactive: [8] 101 % of control | [9] 101 % of control | [10] 90 % of control

CC(CC(O)C(=O)O)CC(C)(C)C (stereo not drawn)
inactive: [8] 95 % of control | [9] 96 % of control | [10] 101 % of control

O=C1CNC(=O)N1CCO
inactive: dose: 12.5 mg/kg/injection, schedule: Q04DX003 (ip), vehicle: saline 99 % of control | dose: 25.0 mg/kg/injection, schedule: Q04DX003 (ip), vehicle: saline 106 % of control | dose: 50.0 mg/kg/injection, schedule: Q04DX003 (ip), vehicle: saline 98 % of control | [11] 99 % of control | [12] 104 % of control | [13] 104 % of control

O=NN(CCCl)C(=O)Oc1ccc(OC(=O)N(CCCl)N=O)cc1
inactive: dose: 6.25 mg/kg/injection, schedule: Q01DX001 (ip), vehicle: Klucel (hydroxypropylcellulose) (HPC) 116 % of control | dose: 12.5 mg/kg/injection, schedule: Q01DX001 (ip), vehicle: Klucel (hydroxypropylcellulose) (HPC) 119 % of control

N#CC(C(=O)CCCC(=O)Nc1ccc(Cl)cc1)c1ccccc1Cl (stereo not drawn)
inactive: [5] 113 % of control | [6] 113 % of control | [7] 106 % of control

Nc1cc(=O)c2n[nH]nc2[nH]1
inactive: dose: 50.0 mg/kg/injection, schedule: Q04DX003 (ip), vehicle: saline with Tween-80 100 % of control | [14] 108 % of control | [15] 108 % of control | [16] 107 % of control

C=C1C(=O)OC2/C=C(\COC(C)=O)CC/C=C(/COC(=O)C(C)CC)CC(O)C12 (stereo not drawn) (tested in a mixture with another compound)
inactive: dose: 2.0 mg/kg/injection, schedule: Q01DX009 (ip), vehicle: Klucel (hydroxypropylcellulose) (HPC) 119 % of control | dose: 4.0 mg/kg/injection, schedule: Q01DX009 (ip), vehicle: Klucel (hydroxypropylcellulose) (HPC) 114 % of control | dose: 8.0 mg/kg/injection, schedule: Q01DX009 (ip), vehicle: Klucel (hydroxypropylcellulose) (HPC) 113 % of control | dose: 16.0 mg/kg/injection, schedule: Q01DX009 (ip), vehicle: Klucel (hydroxypropylcellulose) (HPC) 111 % of control | dose: 32.0 mg/kg/injection, schedule: Q01DX009 (ip), vehicle: Klucel (hydroxypropylcellulose) (HPC) 120 % of control

CC1=NN(C(=O)c2ccncc2)C(=O)C1N=Nc1ccc(S(=O)(=O)Nc2nccs2)cc1 (stereo not drawn)
inactive: [17] 102 % of control | [18] 97 % of control | [4] 96 % of control

CC(/C=C/c1ccccc1)=N\NC(=O)c1ccccc1
inactive: dose: 6.25 mg/kg/injection, schedule: Q01DX005 (ip), vehicle: Klucel (hydroxypropylcellulose) (HPC) 108 % of control | dose: 12.5 mg/kg/injection, schedule: Q01DX005 (ip), vehicle: Klucel (hydroxypropylcellulose) (HPC) 97 % of control | dose: 25.0 mg/kg/injection, schedule: Q01DX005 (ip), vehicle: Klucel (hydroxypropylcellulose) (HPC) 100 % of control and 108 % of control and 96 % of control | dose: 100.0 mg/kg/injection, schedule: Q01DX005 (ip), vehicle: Klucel (hydroxypropylcellulose) (HPC) 112 % of control

CSc1c(C)n2c3c(cccc13)CCC2
inactive: [5] 108 % of control | [6] 96 % of control | [7] 100 % of control

O=C(NC(CO)C(=O)O)c1ccccc1 (stereo not drawn)
inactive: [19] 100 % of control | [20] 100 % of control | [21] 100 % of control

C=C(C)C1CNC(C(=O)O)C1CC(=O)O (stereo not drawn)
inactive: dose: 6.25 mg/kg/injection, schedule: Q01DX009 (ip), vehicle: saline sonified 105 % of control | dose: 12.5 mg/kg/injection, schedule: Q01DX009 (ip), vehicle: saline sonified 90 % of control | dose: 25.0 mg/kg/injection, schedule: Q01DX009 (ip), vehicle: saline sonified 100 % of control

NC(N)=NCCC(=O)c1cnc(N)[nH]1
inactive: dose: 8.75 mg/kg/injection, schedule: Q01DX005 (ip), vehicle: Klucel (hydroxypropylcellulose) (HPC) 106 % of control | dose: 17.5 mg/kg/injection, schedule: Q01DX005 (ip), vehicle: Klucel (hydroxypropylcellulose) (HPC) 107 % of control | dose: 35.0 mg/kg/injection, schedule: Q01DX005 (ip), vehicle: Klucel (hydroxypropylcellulose) (HPC) 100 % of control

CSc1ncc(C#N)c2nc(-c3ccccc3)nn12
inactive: [8] 97 % of control | [9] 94 % of control | [10] 88 % of control

CN(C)c1nc(N)nc(Nc2ccc(Br)cc2)c1N=O
inactive: [3] 100 % of control | [17] 91 % of control | [1] 113 % of control | [18] 100 % of control | [14] 108 % of control | [2] 109 % of control | [15] 95 % of control | dose: 400.0 mg/kg/injection, schedule: Q01DX009 (ip), vehicle: Klucel (hydroxypropylcellulose) (HPC) 95 % of control | [16] 95 % of control

CC([C@H](c1ccccc1)C1CCC(C(N)=O)(N2CCOCC2)C1)[N+](=O)[O-] (stereo partly drawn)
inactive: dose: 60.0 mg/kg/injection, schedule: Q01DX005 (ip), vehicle: Klucel (hydroxypropylcellulose) (HPC) 99 % of control | dose: 120.0 mg/kg/injection, schedule: Q01DX005 (ip), vehicle: Klucel (hydroxypropylcellulose) (HPC) 99 % of control | dose: 240.0 mg/kg/injection, schedule: Q01DX005 (ip), vehicle: Klucel (hydroxypropylcellulose) (HPC) 93 % of control

BrC(Br)=C(Br)Br
inactive: dose: 50.0 mg/kg/injection, schedule: Q01DX009 (ip), vehicle: saline 100 % of control | dose: 100.0 mg/kg/injection, schedule: Q01DX009 (ip), vehicle: saline 104 % of control | dose: 200.0 mg/kg/injection, schedule: Q01DX009 (ip), vehicle: saline 104 % of control

Cn1cnc2cc(NCCO)c([N+](=O)[O-])cc2c1=O
inactive: [11] 105 % of control | [12] 119 % of control | [13] 96 % of control

CC(C)=CC(=O)OC(=O)C=C(C)C
inactive: dose: 100.0 mg/kg/injection, schedule: Q04DX003 (ip), vehicle: other 100 % of control | dose: 200.0 mg/kg/injection, schedule: Q04DX003 (ip), vehicle: other 100 % of control | dose: 400.0 mg/kg/injection, schedule: Q04DX003 (ip), vehicle: other 100 % of control

O=c1cc(O)c2ccc3ccccc3c2o1
inactive: [8] 89 % of control | [9] 87 % of control | [10] 92 % of control

O=[N+]([O-])/C=C/c1c[nH]c2c1ccc1ccccc12
inactive: [9] 86 % of control | [10] 94 % of control

Clc1ccc(N=NN2CN3CN(C2)CN(N=Nc2ccc(Cl)cc2)C3)cc1
inactive: dose: 100.0 mg/kg/injection, schedule: Q04DX002 (ip), vehicle: Klucel (hydroxypropylcellulose) (HPC) 94 % of control | dose: 200.0 mg/kg/injection, schedule: Q04DX002 (ip), vehicle: Klucel (hydroxypropylcellulose) (HPC) 99 % of control | dose: 400.0 mg/kg/injection, schedule: Q04DX002 (ip), vehicle: Klucel (hydroxypropylcellulose) (HPC) 91 % of control

CCOC(=O)N(C)N(C)C(=O)OCC
inactive: [19] 100 % of control | [20] 100 % of control | [21] 100 % of control
